Patent US9078900B2 (priority 2008, dated 2015)

Conditions: at the end of the third month after implantation

Cc1nc2n(c(=O)c1CCN1CCC(c3noc4cc(F)ccc34)CC1)CCCC2 [Risperidone, risperidone]
presence of risperidone in the dog plasma: still present at a high level
